Laboratory results published in ChEMBL document CHEMBL5036362, “Salidroside Promotes Sensitization to Doxorubicin in Human Cancer Cells by Affecting the PI3K/Akt/HIF Signal Pathway and Inhibiting the Expression of Tumor-Resistance-Related Proteins” (J Nat Prod, 2022).
Active and inactive are the calls of the source. The rule behind the calls is not given here.

Tests used:
HeLa [1] = test: Antiproliferative activity against human HeLa cells assessed as inhibition of cell proliferation measured after 48 hrs by CCK-8 assay; assay type: functional, cell-based
HeLa [2] = test: Downregulation of Bcl-2 protein expression in human HeLa cells after 48 hrs by western blotting analysis; assay type: functional, cell-based
HeLa [3] = test: Inhibition of hypoxia-inducible factor 1 alpha in DOX induced human HeLa cells assessed as downregulation of protein at 0.017 mmol/L after 48 hrs by Western blotting analysis; assay type: functional
[4] = Toxicity in DOX induced BALB/c nude mouse xenografted with human HeLa cells assessed as induction of fainting at 80 mg/kg, ig administered every 2 days for 18 days; assay type: organism-based; conditions: in vivo, po, 432 h, time 18 day
HeLa [5] = test: Downregulation of doxorubicin induced AKT protein expression in human HeLa cells after 48 hrs by western blotting analysis; assay type: functional, cell-based
HeLa [6] = test: Downregulation of MMP-9 protein expression in human HeLa cells after 48 hrs by western blotting analysis; assay type: functional, cell-based
[7] = Toxicity in BALB/c nude mouse xenografted with human HeLa cells assessed as change in body weight at 80 mg/kg, ig administered every 2 days for 18 days; assay type: organism-based; conditions: in vivo, po, 432 h, time 18 day
HeLa [8] = test: Downregulation of PI3K protein expression in human HeLa cells after 48 hrs by western blotting analysis; assay type: functional, cell-based
[9] = Decrease in MDR1 gene expression in human HeLa cells by qRT-PCR analysis; assay type: functional; conditions: dose 0.017 mol/L; time 48 hrs
HeLa [10] = test: Induction of morphological change in human HeLa cells assessed as potentiation of doxorubicin induced cell shrinkage measured after 48 hrs in by CCK-8 assay; assay type: functional, cell-based
HeLa [11] = test: Downregulation of AKT protein expression in human HeLa cells after 48 hrs by western blotting analysis; assay type: functional, cell-based
[12] = Toxicity in BALB/c nude mouse xenografted with human HeLa cells assessed as potentiation of doxorubicin induced inflammation in myocardial tissue at 80 mg/kg, ig administered every 2 days for 18 days by H and E staining; assay type: organism-based, Myocardium/plasma; conditions: in vivo, po, 432 h, time 18 day
HeLa [13] = test: Downregulation of doxorubicin induced Bcl-2 protein expression in human HeLa cells after 48 hrs by western blotting analysis; assay type: functional, cell-based
[14] = Decrease in MDR1 gene expression in DOX induced human HeLa cells by RT-PCR analysis; assay type: functional
HeLa [15] = test: Antimigratory activity against human HeLa cells at 0.017 mmol/L measured upto 48 hrs by electron microscope based Wound healing assay relative to control; assay type: functional; conditions: time hrs <=48
HeLa [16] = test: Inhibition of potentiation of doxorubicin induced cell migration in human HeLa cells measured upto 48 hrs by electron microscope based Wound healing assay relative to control; assay type: functional; conditions: time hrs <=48
HeLa [17] = test: Cytotoxicity against human HeLa cells assessed as reduction in cell viability measured after 48 hrs by CCK-8 assay; assay type: functional
Mus musculus [18] = test: Effect on DOX induced tissue damage in BALB/c nude mouse xenografted with human HeLa cells assessed as spleen enlargement at 80 mg/kg, ig administered every 2 days for 18 days by H and E staining; assay type: functional, organism-based
[19] = Toxicity in DOX induced BALB/c nude mouse xenografted with human HeLa cells assessed as induction of convulsions at 80 mg/kg, ig administered every 2 days for 18 days; assay type: organism-based; conditions: in vivo, po, 432 h, time 18 day
HeLa [20] = test: Upregulation of BAX protein expression in human HeLa cells after 48 hrs by western blotting analysis; assay type: functional, cell-based
HeLa [21] = test: Downregulation of doxorubicin induced MMP-2 protein expression in human HeLa cells after 48 hrs by western blotting analysis; assay type: functional, cell-based
HeLa [22] = test: Antitumor activity against human HeLa cells xenografted in BALB/c nude mouse assessed as potentiation of doxorubicin induced tumor growth inhibition at 80 mg/kg, ig administered every 2 days for 18 days by firefly luciferase based bioluminescence assay; assay type: functional, organism-based; conditions: time 18.0 day
HeLa [23] = test: Cytotoxicity against human HeLa cells assessed as potentiation of doxorubicin induced cell survival measured after 72 hrs by CCK-8 assay; assay type: functional
HeLa [24] = test: Induction of morphological change in human HeLa cells assessed as cell shrinkage measured after 48 hrs by CCK-8 assay; assay type: functional, cell-based
[25] = Toxicity in BALB/c nude mouse xenografted with human HeLa cells assessed as induction of convulsions at 80 mg/kg, ig administered every 2 days for 18 days; assay type: organism-based; conditions: in vivo, po, 432 h, time 18 day
HeLa [26] = test: Upregulation of doxorubicin induced BAX protein expression in human HeLa cells after 48 hrs by western blotting analysis; assay type: functional, cell-based
[27] = Toxicity in BALB/c nude mouse xenografted with human HeLa cells assessed as induction of fainting at 80 mg/kg, ig administered every 2 days for 18 days; assay type: organism-based; conditions: in vivo, po, 432 h, time 18 day
HeLa [28] = test: Induction of morphological change in human HeLa cells assessed as reduction in size measured after 48 hrs by CCK-8 assay; assay type: functional, cell-based
[29] = Toxicity in BALB/c nude mouse xenografted with human HeLa cells assessed as induction of breathing difficulties at 80 mg/kg, ig administered every 2 days for 18 days; assay type: organism-based; conditions: in vivo, po, 432 h, time 18 day
[30] = Toxicity in DOX induced BALB/c nude mouse xenografted with human HeLa cells assessed as change in body weight at 80 mg/kg, ig administered every 2 days for 18 days; assay type: organism-based; conditions: in vivo, po, 432 h, time 18 day
HeLa [31] = test: Downregulation of MMP-2 protein expression in human HeLa cells after 48 hrs by western blotting analysis; assay type: functional, cell-based
[32] = Toxicity in BALB/c nude mouse xenografted with human HeLa cells assessed as induction of incontinence at 80 mg/kg, ig administered every 2 days for 18 days; assay type: organism-based; conditions: in vivo, po, 432 h, time 18 day
HeLa [33] = test: Antitumor activity against DOX induced human HeLa cells xenografted in BALB/c nude mouse assessed as induction of apoptosis by measuring increase in TUNEL positive nuclei at 80 mg/kg, ig administered every 2 days for 18 days by TUNEL staining based assay; assay type: functional, organism-based; conditions: time 18.0 day
HeLa [34] = test: Downregulation of doxorubicin induced PI3K protein expression in human HeLa cells after 48 hrs by western blotting analysis; assay type: functional, cell-based
Mus musculus [35] = test: Effect on DOX induced tissue damage in BALB/c nude mouse xenografted with human HeLa cells assessed as appearance of lesions in glomerular tubule at 80 mg/kg, ig for administered every 2 days for 18 days by H and E staining; assay type: functional, organism-based; conditions: Renal glomerulus, time 18.0 day
[36] = Toxicity in DOX induced BALB/c nude mouse xenografted with human HeLa cells assessed as induction of breathing difficulties at 80 mg/kg, ig administered every 2 days for 18 days; assay type: organism-based; conditions: in vivo, po, 432 h, time 18 day
HeLa [37] = test: Downregulation of doxorubicin induced MMP-9 protein expression in human HeLa cells after 48 hrs by western blotting analysis; assay type: functional, cell-based
HeLa [38] = test: Antitumor activity against human HeLa cells xenografted in BALB/c nude mouse assessed as tumor growth inhibition at 80 mg/kg, ig for administered every 2 days for 18 days by firefly luciferase based bioluminescence assay; assay type: functional, organism-based; conditions: time 18.0 day
HeLa [39] = test: Induction of morphological change in human HeLa cells assessed as potentiation of doxorubicin induced reduction in size measured after 48 hrs in presence of doxorubicin by CCK-8 assay; assay type: functional, cell-based
Mus musculus [40] = test: Effect on DOX induced tissue damage in BALB/c nude mouse xenografted with human HeLa cells assessed as inflammatory cell infiltration in liver at 80 mg/kg, ig administered every 2 days for 18 days by H and E staining; assay type: functional, organism-based; conditions: time 18.0 day
[41] = Toxicity in DOX induced BALB/c nude mouse xenografted with human HeLa cells assessed as induction of incontinence at 80 mg/kg, ig administered every 2 days for 18 days; assay type: organism-based; conditions: in vivo, po, 432 h, time 18 day
[42] = Toxicity in BALB/c nude mouse xenografted with human HeLa cells assessed as induction of incontinence at 1 mg/kg, ip administered every 2 days for 18 days; assay type: organism-based; conditions: in vivo, 432 h, time 18 day
[43] = Toxicity in BALB/c nude mouse xenografted with human HeLa cells assessed as induction of fainting at 1 mg/kg, ip administered every 2 days for 18 days; assay type: organism-based; conditions: in vivo, 432 h, time 18 day
HeLa [44] = test: Antitumor activity against human HeLa cells xenografted in BALB/c nude mouse assessed as tumor growth inhibition at 1 mg/kg, ip administered every 2 days for 18 days by firefly luciferase based bioluminescence assay; assay type: functional, organism-based; conditions: time 18.0 day
[45] = Toxicity in BALB/c nude mouse xenografted with human HeLa cells assessed as inflammation in myocardial tissue at 1 mg/kg, ip administered every 2 days for 18 days by H and E staining; assay type: organism-based, Myocardium/plasma; conditions: in vivo, 432 h, time 18 day
[46] = Toxicity in BALB/c nude mouse xenografted with human HeLa cells assessed as induction of breathing difficulties at 1 mg/kg, ip administered every 2 days for 18 days; assay type: organism-based; conditions: in vivo, 432 h, time 18 day
HeLa [47] = test: Antimigratory activity against human HeLa cells at 0.22 uM measured upto 48 hrs by electron microscope based Wound healing assay relative to control; assay type: functional; conditions: time hrs <=48
[48] = Induction of MDR1 gene expression in human HeLa cells by qRT-PCR analysis; assay type: functional
[49] = Toxicity in BALB/c nude mouse xenografted with human HeLa cells assessed as induction of convulsions at 1 mg/kg, ip administered every 2 days for 18 days; assay type: organism-based; conditions: in vivo, 432 h, time 18 day
[50] = Toxicity in BALB/c nude mouse xenografted with human HeLa cells assessed as change in body weight at 1 mg/kg, ip administered every 2 days for 18 days; assay type: organism-based; conditions: in vivo, 432 h, time 18 day

## OC[C@H]1O[C@@H](OCCc2ccc(O)cc2)[C@H](O)[C@@H](O)[C@@H]1O [SALIDROSIDE]
HeLa [1]
  IC50: 10.5 µM
HeLa [2]
  Activity: Active
HeLa [3]
  Activity: Active
[4]
  Activity: Non-Toxic
HeLa [5]
  Activity: Active
HeLa [6]
  Activity: Active
[7]
  Activity: Non-Toxic
HeLa [8]
  Activity: Active
[9]
  Activity: 1.65
HeLa [10]
  Activity: Active
HeLa [11]
  Activity: Active
[12]
  Activity: Non-Toxic
HeLa [13]
  Activity: Active
[14]
  Activity: 2.76
HeLa [15]
  Activity: 56.34%
HeLa [16]
  inhibition (INH): 18.95%
HeLa [17]
  Activity: 0.183 µM
Mus musculus [18]
  Activity: inactive
[19]
  Activity: Non-Toxic
HeLa [20]
  Activity: Active
HeLa [21]
  Activity: Active
HeLa [22]
  Activity: Active
HeLa [23]
  Activity: >85%
HeLa [24]
  Activity: Active
[25]
  Activity: Non-Toxic
HeLa [26]
  Activity: Active
[27]
  Activity: Non-Toxic
HeLa [28]
  Activity: Active
[29]
  Activity: Non-Toxic
[30]
  Activity: Non-Toxic
HeLa [31]
  Activity: Active
[32]
  Activity: Non-Toxic
HeLa [33]
  Activity: Active
HeLa [34]
  Activity: Active
Mus musculus [35]
  Activity: inactive
[36]
  Activity: Non-Toxic
HeLa [37]
  Activity: Active
HeLa [38]
  Activity: Active
HeLa [39]
  Activity: Active
Mus musculus [40]
  Activity: inactive
[41]
  Activity: Non-Toxic

## COc1cccc2c1C(=O)c1c(O)c3c(c(O)c1C2=O)C[C@@](O)(C(=O)CO)C[C@@H]3O[C@H]1C[C@H](N)[C@H](O)[C@H](C)O1 [DOXORUBICIN]
[42]
  Activity: Non-Toxic
[43]
  Activity: Non-Toxic
HeLa [44]
  Activity: inactive
HeLa [17]
  Activity: 2.67 µM
[45]
  Activity: Toxic
[46]
  Activity: Non-Toxic
HeLa [24]
  Activity: Active
HeLa [28]
  Activity: Active
HeLa [47]
  Activity: 57.14%
[48]
  Activity: 8.69
[49]
  Activity: Non-Toxic
[50]
  Activity: Non-Toxic
